# Results as given in patent US20220226283A1, “COMBINATION PRODUCT CONTAINING LIMONOID COMPOUND AND DPP-4 INHIBITOR” (ZHEJIANG YANGSHENGTANG INSTITUTE OF NATURAL MEDICATION CO., …, priority 2019, published 2022).
# Columns and labels:
# Assay type in all cases: in vivo
# db/db mice [1] = test: Blood glucose in mouse type II diabetes model (limonoid compound, saxagliptin or combination); details: single administration 0.04 g/kg per day by gavage, two weeks, 1 h after the last administration, mean ± SD
# Text: (§1) In the present example, db/db mice (line name BKS.Cg-Dock7^m+/+Lepr^db/Nju) were used to perform hypoglycemic efficacy evaluation test of animals (blood glucose level and leptin). The limonoid compound was selected from obacunone, isoobacunoic acid and obacunone glycoside, and saxagliptin single administration group, obacunone single administration group, isoobacunoic acid single administration group, obacunone glycoside single administered group, and respective combination thereof with saxagliptin administration groups were set.
# (§2) Conditions for experimental feeding: as type II diabetes model mice, 6-week-old SPF-grade db/db mice were purchased from the Nanjing Model Biology Institute, and subjected to experimental feeding after 7 days of preliminary feeding. It should be noted that the conditions for raising the mice were as follows: the temperature was 23±1° C., the humidity was 55±10%, the lights were turned on between 7 am and 7 pm (the lights were turned off at other time), and the mice were allowed to freely take in water and feed. The experimental feed was mouse growth-stable feed (GB M2118), and the daily feeding and management of the animals were under the responsibility of the animal security department, which provided the animals with sufficient diet and fresh drinking water daily.
# Experimental grouping: male db/db mice (20±2 g) were selected, and 18 male mice in each group were tested. The experimental groups included normal control group (db/m, n=18), model group (db/db, n=18), obacunone group (db/db, n=18), isoobacunoic acid group (db/db, n=18), obacunone glycoside group (db/db, n=18), saxagliptin group (db/db, n=18), obacunone/saxagliptin combination group (db/db, n=18), isoobacunoic acid/saxagliptin combination group (db/db, n=18), obacunone glycoside/saxagliptin combination group (db/db, n=18). […]
# db/db mice [2] = test: Blood glucose in mouse type II diabetes model (limonoid compound, linagliptin or combination); details: single administration 0.2 g/kg per day by gavage, two weeks, 1 h after the last administration, mean ± SD
# Text: (§3) In the present embodiment, the limonoid compound was selected from nomilin, deacetylnomilin, nomilin acid, deacetylnomilin acid glycoside, and linagliptin single administration group, nomilin single administration group, deacetylnomilin single administration group, nomilin acid single administered group, deacetylnomilin acid glycoside single administration group, and respective combination thereof with linagliptin administration groups were set.
# as §2
# (§4) Experimental grouping: male db/db mice (20±2 g) were selected, 18 male mice in each group were tested, and drinking bottles were sterilized weekly. […]
# db/db mice [3] = test: Serum insulin (Elisa) in mouse type II diabetes model (limonoid compound, linagliptin or combination); details: single administration 0.2 g/kg per day by gavage, two weeks, mean ± SD
# Text: as §3, §2, §4
# db/db mice [4] = test: Serum leptin (Elisa) in mouse type II diabetes model (limonoid compound, saxagliptin or combination); details: single administration 0.04 g/kg per day by gavage, two weeks, mean ± SD
# Text: as §1
# as §2, with “daily. […]” for “daily.”
# [5] = test system: mouse pancreatic islet β-cell injury model (ICR mice modeled with streptozotocin); test: Blood glucose in mouse pancreatic islet β-cell injury model (limonoid compound, sitagliptin or combination); details: STZ mice, single administration 0.02 g/kg per day by gavage, two weeks, 1 h after the last administration, mean ± SD
# Text: In this example, a mouse pancreatic islet β-cell injury model was established by modeling ICR mice with streptozotocin (STZ) (Li Nan et al., Protective effect of pine pollen on kidney damage in diabetic nephropathy mice, Science and Technology Review, 2014, 32 (4/5): 95-99), and used to complete the evaluation of hypoglycemic effect in animals (this model could simulate pancreatic islet β-cell damage state of type I and type II diabetics). The limonoid compound was selected from the group consisting of limonin, isolimonic acid, limonin glycoside, and isolimonic acid glycoside, and sitagliptin single administration group, limonin single administration group, isolimonic acid single administration group, limonin glycoside singe administration group, isolimonic acid glycoside singe administration group, and respective combination thereof with sitagliptin administration groups were set. Conditions of experimental feeding: ICR mice (20±2 g), aged 6 weeks, purchased from Zhejiang Academy of Medical Sciences, and subjected to experimental feeding after 7 days of preliminary feeding. […] The data were expressed as mean and standard deviation. The data before and after were analyzed by t-test, and P<0.05 was considered statistically significant.
# [6] = test system: mouse pancreatic islet β-cell injury model (ICR mice modeled with streptozotocin); test: Blood glucose in mouse pancreatic islet β-cell injury model (limonoid compound, vildagliptin or combination); details: STZ mice, single administration 0.1 g/kg per day by gavage, two weeks, 1 h after the last administration, mean ± SD
# Procedure: as §2, with “It” for “Conditions for experimental feeding: as type II diabetes model mice, 6-week-old SPF-grade db/db mice were purchased from the Nanjing Model Biology Institute, and subjected to experimental feeding after 7 days of preliminary feeding. It”
# SPSS 16.0 software was used for statistical analysis. The data were expressed as mean and standard deviation. The data before and after were analyzed by t-test, and P<0.05 was considered statistically significant.
structure (smiles),measurement,setting,value
"CC1(C)O[C@@H](CC(=O)O)[C@]2(C)[C@H]3CC[C@@]4(C)[C@H](c5ccoc5)OC(=O)[C@H]5O[C@]54[C@]3(C)C(=O)C[C@@H]12 [Isoobacunoic acid, isoobacunoic acid]",Blood glucose value,db/db mice [1],14.6 ± 3.1 mmol/L
"CC#CCn1c(N2CCC[C@@H](N)C2)nc2c1c(=O)n(Cc1nc(C)c3ccccc3n1)c(=O)n2C [Linagliptin, linagliptin]",Blood glucose value,db/db mice [2],11.9 ± 2.1 mmol/L
same,Insulin,db/db mice [3],8.00 ± 1.94 pg/mL
"CC1(C)OC(=O)C=C[C@]2(C)[C@H]3CC[C@@](C)([C@@H](O[C@@H]4O[C@H](CO)[C@@H](O)[C@H](O)[C@H]4O)c4ccoc4)[C@@]4(O[C@@H]4C(=O)O)[C@]3(C)C(=O)C[C@@H]12 [Obacunone glycoside, obacunone glycoside]",Blood glucose value,db/db mice [1],13.6 ± 2.9 mmol/L
"N#C[C@@H]1C[C@@H]2C[C@@H]2N1C(=O)[C@@H](N)C12CC3CC(CC(O)(C3)C1)C2 [Saxagliptin, saxagliptin]",Blood glucose value,db/db mice [1],13.9 ± 3.5 mmol/L
same,Leptin,db/db mice [4],32.52 ± 5.11 pg/mL
"N[C@@H](CC(=O)N1CCn2c(nnc2C(F)(F)F)C1)Cc1cc(F)c(F)cc1F [Sitagliptin, sitagliptin]",Blood glucose value,[5],21.7 ± 4.9 mmol/L
"N#C[C@@H]1CCCN1C(=O)CNC12CC3CC(CC(O)(C3)C1)C2 [Vildagliptin, vildagliptin]",Blood glucose value,[6],16.9 ± 2.6 mmol/L
